Laboratory results published in patent US20220380432A1, “Acylated Calcitonin Mimetics” (KeyBioscience AG, priority 2018, published 2022).
Numbered stars: 1 amine (or outer) side, 2 acyl side, 3 side chain; on linkers, the order of the positions; unused ones are H or OH. Bridge positions count the residues as written; N and C are the ends. Square brackets hold non-standard residues; d marks the D form. Side chains are listed from the residue outwards. Ends that are not written are not given here. Peptide text beside a SMILES is read from it. * marks the point of attachment. C18 diacid = O=C(O)CCCCCCCCCCCCCCCCC(=O)*; γGlu = O=C(O)[C@H](CCC(=O)[*:2])N[*:1]; AEEA = NCCOCCOCC(=O)O; Aib = CC(C)(N)C(=O)O

T1: Calcitonin Receptor (CTR) (Homo sapiens (Human), UniProt P30988)
T1 sequence: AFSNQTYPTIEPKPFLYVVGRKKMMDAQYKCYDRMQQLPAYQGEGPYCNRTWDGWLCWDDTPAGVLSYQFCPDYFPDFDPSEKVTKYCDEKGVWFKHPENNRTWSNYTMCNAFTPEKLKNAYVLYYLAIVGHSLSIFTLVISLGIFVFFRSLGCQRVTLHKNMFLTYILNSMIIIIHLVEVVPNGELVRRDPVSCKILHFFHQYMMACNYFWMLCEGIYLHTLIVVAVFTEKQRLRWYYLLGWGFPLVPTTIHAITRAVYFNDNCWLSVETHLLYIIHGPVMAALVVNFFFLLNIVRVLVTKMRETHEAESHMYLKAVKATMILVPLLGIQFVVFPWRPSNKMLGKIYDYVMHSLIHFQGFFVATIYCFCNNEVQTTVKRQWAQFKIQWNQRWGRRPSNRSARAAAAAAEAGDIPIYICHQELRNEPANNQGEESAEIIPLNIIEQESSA

T2: Amylin Receptor (AMY-R) (Homo sapiens (Human), UniProt P30988)
T2 sequence 1: T1 sequence
T2 sequence 2: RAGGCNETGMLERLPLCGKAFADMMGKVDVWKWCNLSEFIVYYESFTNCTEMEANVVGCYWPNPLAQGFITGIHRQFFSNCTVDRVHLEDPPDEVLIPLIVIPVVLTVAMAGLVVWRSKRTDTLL

B1: KBP-318 (peptide)
peptide: Ac-CSNLSTCMLGRLSQELHRLQTYPKTDVGANAPK
modifications: not fully specified (residue 33); ends and bridges not checked

Columns and labels:
[1] = Thioflavin T (ThT) fibrillation screening assay; type: physicochemical; details: for Peptide Fibrillation Thioflavin T ΔFluorescence 18 h Assay Score: Table 4.4: acylation linkers, backbone KBP-066, tier from 18 h fluorescence signal, 37° C.
Procedure: Thioflavin T (T3516, Sigma). Assay stock ThT is prepared as a 10 mM solution in 5 mM sodium phosphate pH 7.2. Aliquots are stored, protected from light, at −20° C. Stock ThT is thawed and diluted just prior to use.
For the tested calcitonin mimetics (hereinafter referred to as “acylated KBPs” or simply “KBPs”), final buffer conditions are 10 mM Tris-HCl pH 7.5.
The final peptide concentration in the wells should be 100-200 μM, and the final ThT concentration should be 4 μM. ThT is added last (10 μL).
Thioflavin T assays were also conducted. Thioflavin T (ThT) is a dye widely used for the detection of amyloid fibrils. In the presence of fibrils, ThT has an excitation maximum at 450 nm and enhanced emission at 480 nm, whereas ThT is essentially non-fluorescent at these wavelengths when not bound to amyloid fibrils.
Thus, ThT in combination with a fluorescent plate reader is an ideal tool for screening large numbers of in vitro samples for the presence of amyloid fibrils. […]
The plate is loaded into a fluorescent plate reader, such as a SpectraMax with SoftMax Pro 7.0.2 software, and the template set to 37° C. with excitation wavelength at 450 nm and emission wavelength at 480 nm.
Plate reader should measure fluorescence every 10 minutes for 24 hours with a five-second plate shake before the first read and a three-second plate shake before all other reads. Alternatively, the plate is read after the following incubation times; 0, 1, 2, 4 and 24 hours.
Plot relative fluorescence units (RFU) as a function of time. Fibrillation is determined as an increase in RFU over baseline as described by Nielsen et. al.
In this filing four fibrillations tiers have been defined based on the 18 h fluorescence signal to get a single output that reflects the peptides fibrillation potential: None=<1000 RFU, Low=1000-3000 RFU, Medium=3000-10000, High=>10000

20 week HFD SD rats = experiment: Single dose food intake and body weight test in HFD SD rats (Examples 3, 4, 5, 8, 10, 12); type: in vivo, rat; details: Table 4.4: acylation linkers, backbone KBP-066; single s.c. dose 4 nmol/kg, HFD SD rats
From the text: In the animal model studies, 12 week healthy Sprague Dawley (SD) rats were used to assess the potency of the acylated KBPs. In some examples they were fed normal chow during prior and during the tests, whereas in other examples, the 12 week healthy SD rats were fed high fat diet (HFD) for eight weeks prior to the test and for the duration of the test.
(§1) Rats were single caged four days prior to the test. Rats were randomized by weight into eleven groups (Vehicle (0.9% NaCl), KBPs (doses: 36 nmol/kg (150-157 μg/kg)). They were fasted overnight and then treated with a single dose of peptide or vehicle in the morning using subcutaneous administration. Food intake was monitored in the following intervals (0-4 hours, 4-24 hours, 24-48 hours . . . 144-168 hours). Body weight was measured at baseline and every 24 hours post s.c injection.
as §1, with “(doses: 4 nmol/kg (^17 μg/kg), 12 nmol/kg (^50 μg/kg) or” for “(doses:”, “([…]” for “(150-157”
Single high dose effect of A11/3 acylated variants of KBP-042 and KBP-066 on food intake and body weight in 20 week HFD SD rats. Rats were single caged four days prior to the test. Rats were randomized by weight into eleven groups (Vehicle (0.9% NaCl), KBPs (doses: 300 nmol/kg (^1000 μg/kg)).
The rats were fasted overnight and then treated with a single dose of peptide or vehicle in the morning using subcutaneous administration. Food intake was monitored in the following intervals (0-4 hours, 4-24 hours, 24-48 hours . . . […]). Body weight was measured at baseline and every 24 hours post s.c injection.
(§2) Rats were single caged four days prior to the test. Rats were randomized by weight into eight groups (Vehicle (0.9% NaCl), KBPs (doses: 3 nmol/kg (^10-11 μg/kg)). They were fasted overnight and then treated with a single dose of peptide or vehicle in the morning using subcutaneous administration. Food intake was monitored in the following intervals (0-4 hours, 4-24 hours, 24-48 hours, 48-72 hours, and 72-96 hours). Body weight was measured at baseline and at 4 hour, 24 hours, 48 hours, 72 hours and 96 hours post s.c injection.
as §2, with “4” for “3”, “s.c.” for “s.c”, “injection. Two backbones were tested, KBP-066 and KBP-021.” for “injection.”
as §2, with “4” for “3”, “(^13-14” for “(^10-11”

male ZDF rats = experiment: Chronic study in male ZDF rats (food intake, body weight, FBG, HbA1c, OGTT); type: in vivo, rat; details: 62-day study
Procedure: A chronic study was performed in male ZDF rats. (obese homozygous recessive (fa/fa) strain: 370) (Charles River, USA). Rats were delivered 5 weeks of age. The rats were housed 2-3 per cage.
Rats were delivered to the animal facility of Nordic Bioscience at five weeks of age (DAY −6). Rats were acclimatized for three days. HbA1c and BW was registered (DAY −3). Rats were randomized based on HbA1c (primarily) and BW (secondly) at […]. The study was initiated at DAY 1.
Animals were dosed once daily with KBP-066 or saline (vehicle). Dosing with KBP-066A11.03 was performed once every third day. Dosing was administered subcutaneously (SC) around noon.
Saline: Dosage volume was 1 mL/kg. […]
DAY −3: HbA1c measurement DAY 1: (first day of study), rats were fasted for 6 h and a BG and blood sample was taken. […] Hb1Ac is measured during the OGTT at t=120 or t=180. […]
Food intake was monitored daily. Body weight was monitored daily for first three weeks, then twice weekly after week three.
Fasting blood glucose was monitored every two weeks using Accu-Check® Avia monitoring system (Roche Diagnostics, Rotkreuz, Switzerland): Measurement was taken from the tail vein (25 G needle).
Rats were non-fasted for the first (randomization) and second (after the second OGTT) HbA1c measurement. A single drop of blood was applied to the HbA1c cassette and the HbA1c was measured using a DCA Vantage Analyzer. […]

[2] = biological target: T1, Calcitonin Receptor (CTR); experiment: cell-based or functional assay
Amylin Receptor (AMY-R) = biological target: T2, Amylin Receptor (AMY-R); experiment: cell-based or functional assay

Molecule	Peptide Fibrillation Thioflavin T ΔFluorescence 18 h Assay Score [1]	Food Intake ΔFOOD Sustained Attenuation (4 nmol/kg) Hours (20 week HFD SD rats)	further results
CC(=O)N[C@H]1CSSC[C@@H](C(=O)NC(C)(C)C(=O)N[C@@H](CC(C)C)C(=O)NCC(=O)N[C@@H](CCCCNC(=O)COCCOCCNC(=O)CC[C@H](NC(=O)CCCCCCCCCCCCCCCCC(=O)O)C(=O)O)C(=O)N[C@@H](CC(C)C)C(=O)N[C@@H](CO)C(=O)N[C@@H](CCC(N)=O)C(=O)N[C@@H](CC(=O)O)C(=O)N[C@@H](CC(C)C)C(=O)N[C@@H](Cc2c[nH]cn2)C(=O)N[C@@H](CCCNC(=N)N)C(=O)N[C@@H](CC(C)C)C(=O)N[C@@H](CCC(N)=O)C(=O)N[C@H](C(=O)N[C@@H](Cc2ccc(O)cc2)C(=O)N2CCC[C@H]2C(=O)N[C@@H](CCCCN)C(=O)N[C@H](C(=O)N[C@@H](CC(=O)O)C(=O)N[C@H](C(=O)NCC(=O)N[C@@H](C)C(=O)N[C@@H](CC(N)=O)C(=O)N[C@@H](C)C(=O)N2CCC[C@H]2C(N)=O)C(C)C)[C@@H](C)O)[C@@H](C)O)NC(=O)[C@H]([C@@H](C)O)NC(=O)[C@H](CO)NC(=O)[C@H](CC(C)C)NC(=O)[C@H](CC(N)=O)NC(=O)[C@H](CO)NC1=O [KBP-384] (Ac-CSNLSTC[Aib]LGK([AEEA-γGlu-C18 diacid])LSQDLHRLQTYPKTDVGANAP-NH2; disulfide 1-7 (inferred))	Low (Low=1000-3000 RFU)	72 h	fibrillation tier (score in the ThT assay) ([1]; 18 h fluorescence signal): low
CSNLSTC(AiB)LGRLSQDLHRLQTYPKTDVGANAP [KBP-066]			fasting blood glucose (in words) (male ZDF rats): reduced FBG in a dose dependent manner
CC(=O)N[C@H]1CSSC[C@@H](C(=O)NC(C)(C)C(=O)N[C@@H](CC(C)C)C(=O)NCC(=O)N[C@@H](CCCCNC(=O)COCCOCCNC(=O)COCCOCCNC(=O)COCCOCCNC(=O)CC[C@H](NC(=O)CCCCCCCCCCCCCCCCC(=O)O)C(=O)O)C(=O)N[C@@H](CC(C)C)C(=O)N[C@@H](CO)C(=O)N[C@@H](CCC(N)=O)C(=O)N[C@@H](CC(=O)O)C(=O)N[C@@H](CC(C)C)C(=O)N[C@@H](Cc2c[nH]cn2)C(=O)N[C@@H](CCCNC(=N)N)C(=O)N[C@@H](CC(C)C)C(=O)N[C@@H](CCC(N)=O)C(=O)N[C@H](C(=O)N[C@@H](Cc2ccc(O)cc2)C(=O)N2CCC[C@H]2C(=O)N[C@@H](CCCCN)C(=O)N[C@H](C(=O)N[C@@H](CC(=O)O)C(=O)N[C@H](C(=O)NCC(=O)N[C@@H](C)C(=O)N[C@@H](CC(N)=O)C(=O)N[C@@H](C)C(=O)N2CCC[C@H]2C(N)=O)C(C)C)[C@@H](C)O)[C@@H](C)O)NC(=O)[C@H]([C@@H](C)O)NC(=O)[C@H](CO)NC(=O)[C@H](CC(C)C)NC(=O)[C@H](CC(N)=O)NC(=O)[C@H](CO)NC1=O [KBP-385] (Ac-CSNLSTC[Aib]LGK([AEEA-AEEA-AEEA-γGlu-C18 diacid])LSQDLHRLQTYPKTDVGANAP-NH2; disulfide 1-7 (inferred))	None (None=<1000 RFU)	72 h	
B1			β-arrestin Fold Recruitment EC50 values (10^-9 M) [2]: 197 nM; β-arrestin Fold Recruitment EC50 values (10^-9 M) (Amylin Receptor (AMY-R)): 301 nM
